{
  "source": "patent US5262440A",
  "about": "“Antitumor compositions and methods of treatment” (Eli Lilly and Company, priority 1991, dated 1993)",
  "key": {"[1]": {"system": "6C3HED lymphosarcoma (Gardner lymphosarcoma, GLS)", "assay": "Percent inhibition of tumor growth in C3H mice bearing 6C3HED lymphosarcoma (Gardner lymphosarcoma, GLS), oral", "format": "in vivo", "details": "oral gavage, daily for 8 days", "method": "(§1) The compounds were tested in C3H mice bearing a 6C3HED lymphosarcoma, also known as the Gardner lymphosarcoma (GLS). The 6C3HED lymphosarcoma was obtained from the Division of Cancer Treatment, National Cancer Institute, Tumor Bank, maintained at E. G. and G. Mason Research (Worcester, Mass.). First passage tumor was stored in liquid nitrogen using standard techniques. The transplanted tumor was reestablished from the Tumor Bank every six months or as needed. The tumor was maintained by serial passage twice weekly in C3H mice.\nIn the procedures utilized here, the tumor was removed from passage animals and minced into 1- to 3-mm cubic fragments using sterile techniques. Tumor pieces were checked for sterility using both Antibiotic Medium 1 and Brain Heart Infusion (Difco, Detroit, Mich.). Recipient mice were shaved and the tumor pieces were implanted subcutaneously in an axillary site by trochar.\n(§2) Drug therapy on the appropriate schedule was initiated on the day after tumor implantation. The compound being tested was mixed with 2.5% Emulphor EL620 from GAF Corporation (1:40 dilution in 0.9% saline). The total dosage volume for each administration was 2.5 mL. All animals were weighed at the beginning and end of administration of the subject compounds. Food and water were provided ad libitum.\n(§3) Each control group and each dosage level of the treated groups consisted of 10 mice selected at random from the pool of implanted animals. The compounds were administered orally by gavage with the use of an 18-gauge needle. Compounds were dosed daily for 8 days.\nThe tumor was measured the day after treatment ended with two dimensional measurements (width and length) of the tumor taken using Vernier calipers. Tumor weights were calculated from these measurements using the following formula:\nTumor weight (mg)=[tumor length (mm)×[tumor width (mm)]^2 ].div.2\nAt least one control group of an equal number of mice was treated with the same volume of 2.5% Emulphor only. The percent inhibition is determined by subtracting the ratio of the mean tumor size of the test group relative to the control group from one and multiplying the result by 100.\n(§4) The results of several experiments in mice bearing a 6C3HED lymphosarcoma when the instant compounds were administered orally are provided in Table I. In the Table, column 1 gives the dose level of the compound mixture of Example 1, column 2 provides the percent inhibition of tumor growth, and column 3 gives the number of mice which died relative to the total number of animals in the group."}, "[2]": {"system": "C3H mice bearing a 6C3HED lymphosarcoma", "assay": "Toxicity (mice which died relative to total number in group) in C3H mice bearing 6C3HED lymphosarcoma", "format": "in vivo", "details": "oral gavage, daily for 8 days", "method": "as §1, §2, §3, §4"}, "[3]": {"details": "metabolite of sulofenur; cited from earlier work"}, "[4]": {"details": "metabolite of sulofenur; cited from earlier work", "remark": "listed apart in the source"}, "[5]": {"details": "all species (mice, rats, dogs, monkeys); cited from earlier work"}, "[6]": {"details": "phase I clinical studies; cited from earlier work"}},
  "data": [
    {"compound": "N-[[(4-chlorophenyl)amino]carbonyl]-indene-5-sulfonamide (A) and N-[[(4-chlorophenyl)amino]carbonyl]-indene-6-sulfonamide (B) [Example 1]", "values": [
      {"measurement": "Percent Inhibition (of tumor growth)", "setting": "[1]; dosage 25.0 (unit not given)", "result": 16, "unit": "%"},
      {"measurement": "Percent Inhibition (of tumor growth)", "setting": "[1]; dosage 50.0 (unit not given)", "result": 36, "unit": "%"},
      {"measurement": "Percent Inhibition (of tumor growth)", "setting": "[1]; dosage 100.0 (unit not given)", "result": 77, "unit": "%"},
      {"measurement": "Percent Inhibition (of tumor growth)", "setting": "[1]; dosage 150.0 (unit not given)", "result": 100, "unit": "%"},
      {"measurement": "Percent Inhibition (of tumor growth)", "setting": "[1]; dosage 300.0 (unit not given)", "result": 100, "unit": "%"},
      {"measurement": "Toxic/Total (mice which died relative to total number of animals in the group)", "setting": "[2]; dosage 25.0 (unit not given)", "result": "0/10"},
      {"measurement": "Toxic/Total (mice which died relative to total number of animals in the group)", "setting": "[2]; dosage 50.0 (unit not given)", "result": "0/10"},
      {"measurement": "Toxic/Total (mice which died relative to total number of animals in the group)", "setting": "[2]; dosage 100.0 (unit not given)", "result": "0/10"},
      {"measurement": "Toxic/Total (mice which died relative to total number of animals in the group)", "setting": "[2]; dosage 150.0 (unit not given)", "result": "0/10"},
      {"measurement": "Toxic/Total (mice which died relative to total number of animals in the group)", "setting": "[2]; dosage 300.0 (unit not given)", "result": "0/10"}
    ]},
    {"compound": "O=C(Nc1ccc(Cl)cc1)NS(=O)(=O)c1ccc2c(c1)CCC2=O", "note": "[N-(1-ketoindan-5-sulfonyl)-N'-(4-chlorophenyl)urea]", "values": [
      {"measurement": "contribution of metabolite to adverse effects", "setting": "[3]", "result": "contribute to the adverse effects"},
      {"measurement": "therapeutic activity of metabolite", "setting": "[3]", "result": "therapeutically inactive"},
      {"measurement": "retention in humans compared with other species tested", "setting": "[4]", "result": "retained longer in humans than in the other species tested"}
    ]},
    {"compound": "O=C(Nc1ccc(Cl)cc1)NS(=O)(=O)c1ccc2c(c1)CCC2O", "note": "(stereo not shown) [N-(1-hydroxyindan-5-sulfonyl)-N'-(4-chlorophenyl)urea]", "values": [
      {"measurement": "contribution of metabolite to adverse effects", "setting": "[3]", "result": "contribute to the adverse effects"},
      {"measurement": "therapeutic activity of metabolite", "setting": "[3]", "result": "therapeutically inactive"},
      {"measurement": "retention in humans compared with other species tested", "setting": "[4]", "result": "retained longer in humans than in the other species tested"}
    ]},
    {"compound": "O=C(Nc1ccc(Cl)cc1)NS(=O)(=O)c1ccc2c(c1)CCC2", "note": "[sulofenur, N-(indan-5-sulfonyl)-N'-(4-chlorophenyl)urea]", "values": [
      {"measurement": "adsorption", "setting": "[5]", "result": "good adsorption"},
      {"measurement": "metabolism (extent)", "setting": "[5]", "result": "extensive metabolism"},
      {"measurement": "major metabolites in patients", "setting": "[6]", "result": "1-hydroxy- and 1-ketoindansulfonylureas"}
    ]}
  ]
}
